Laboratory results taken from US9187434B2, “Substituted 1,5-benzodiazepinones compounds” (BRISTOL-MYERS SQUIBB COMPANY, priority 2012, dated 2015).
pIC50: −log10 of the molar value.

Test system: human Notch 3
Assay: Notch-CBF1 Transactivation Assay (Notch 3)
Assay type: cell-based
Conditions: HeLa cells co-transfected with truncated Notch 3 and CBF1 luciferase reporter; 18 hours incubation
Excerpt: (§1) Notch-CBF1 Transactivation Assay
(§2) Table 12 denotes respective DNA quantity for the transfections.
(§3) Duplicates were used for each sample.

pIC50	SMILES
7.34	N#Cc1ccccc1N1C[C@H](NC(=O)[C@H](CCC(F)(F)F)[C@H](CC2CC2)C(N)=O)C(=O)Nc2c(Cl)cccc21 [Example 26, (2R,3S)—N-((3S)-6-Chloro-1-(2-cyanophenyl)-4-oxo-2,3,4,5-tetrahydro-1H-1,5-benzodiazepin-3-yl)-3-(cyclopropylmethyl)-2-(3,3,3-trifluoropropyl)succinamide]

Test system: human Notch 1
Assay: Notch-CBF1 Transactivation Assay (Notch 1)
Assay type: cell-based
Conditions: HeLa cells co-transfected with truncated Notch 1 and CBF1 luciferase reporter; 18 hours incubation
Excerpt: as §1, §2, §3

pIC50	SMILES
7.76	NC(=O)[C@@H](CCC(F)(F)F)[C@@H](CCC(F)(F)F)C(=O)N[C@H]1CN(c2ccc(Cl)cc2)c2ccccc2NC1=O [Example 4, (2R,3S)—N-((3S)-1-(4-Chlorophenyl)-4-oxo-2,3,4,5-tetrahydro-1H-1,5-benzodiazepin-3-yl)-2,3-bis(3,3,3-trifluoropropyl)succinamide]
7.86	NC(=O)[C@@H](CCC(F)(F)F)[C@@H](CCC(F)(F)F)C(=O)N[C@H]1CN(c2ccc(F)cc2)c2ccccc2NC1=O [Example 6, (2R,3S)—N-((3S)-1-(4-Fluorophenyl)-4-oxo-2,3,4,5-tetrahydro-1H-1,5-benzodiazepin-3-yl)-2,3-bis(3,3,3-trifluoropropyl)succinamide]
7.92	N#Cc1cccc(N2C[C@H](NC(=O)[C@H](CCC(F)(F)F)[C@H](CCC(F)(F)F)C(N)=O)C(=O)Nc3c(C(F)F)cccc32)c1 [Example 10, (2R,3S)—N-((3S)-1-(3-Cyanophenyl)-6-(difluoromethyl)-4-oxo-2,3,4,5-tetrahydro-1H-1,5-benzodiazepin-3-yl)-2,3-bis(3,3,3-trifluoropropyl)succinamide]
7.75	N#Cc1cccc(N2C[C@H](NC(=O)[C@H](CCC(F)(F)F)[C@H](CCC(F)(F)F)C(N)=O)C(=O)Nc3c(F)cccc32)c1 [Example 17, (2R,3S)—N-((3S)-1-(3-Cyanophenyl)-6-fluoro-4-oxo-2,3,4,5-tetrahydro-1H-1,5-benzodiazepin-3-yl)-2,3-bis(3,3,3-trifluoropropyl)succinamide]
7.94	N#Cc1cccc(N2C[C@H](NC(=O)[C@H](CCC(F)(F)F)[C@H](CCC(F)(F)F)C(N)=O)C(=O)Nc3c(Cl)cccc32)c1 [Example 23, (2R,3S)—N-((3S)-6-Chloro-1-(3-cyanophenyl)-4-oxo-2,3,4,5-tetrahydro-1H-1,5-benzodiazepin-3-yl)-2,3-bis(3,3,3-trifluoropropyl)succinamide]
7.84	N#Cc1cccc(N2C[C@H](NC(=O)[C@H](CCC(F)(F)F)[C@H](CC3CC3)C(N)=O)C(=O)Nc3c(Cl)cccc32)c1 [Example 25, (2R,3S)—N-((3S)-6-Chloro-1-(3-cyanophenyl)-4-oxo-2,3,4,5-tetrahydro-1H-1,5-benzodiazepin-3-yl)-3-(cyclopropylmethyl)-2-(3,3,3-trifluoropropyl)succinamide]
7.65	N#Cc1ccccc1N1C[C@H](NC(=O)[C@H](CCC(F)(F)F)[C@H](CC2CC2)C(N)=O)C(=O)Nc2c(Cl)cccc21 [Example 26, (2R,3S)—N-((3S)-6-Chloro-1-(2-cyanophenyl)-4-oxo-2,3,4,5-tetrahydro-1H-1,5-benzodiazepin-3-yl)-3-(cyclopropylmethyl)-2-(3,3,3-trifluoropropyl)succinamide]

Test system: not listed separately
Assay: Human metabolic stability half-life assay
Assay type: in vitro ADME
Conditions: liver microsomes, pH 7.4, human liver microsomes, 0.5 μM compound, NADPH, 45-minute time course, read-out: HLM t1/2
Excerpt: Metabolic Stability Half-Life Panel

SMILES	half-life at 0.5 μM [min]
NC(=O)[C@@H](CCC(F)(F)F)[C@@H](CCC(F)(F)F)C(=O)N[C@H]1CN(c2cccc(C3CC3)c2)c2cccc(Cl)c2NC1=O [Example 1, (2R,3S)—N-((3S)-6-Chloro-1-(3-cyclopropylphenyl)-4-oxo-2,3,4,5-tetrahydro-1H-1,5-benzodiazepin-3-yl)-2,3-bis(3,3,3-trifluoropropyl)succinamide]	≥ 31
NC(=O)[C@@H](CCC(F)(F)F)[C@@H](CCC(F)(F)F)C(=O)N[C@H]1CN(c2cccc(Cl)c2)c2ccccc2NC1=O [Example 3, (2R,3S)—N-((3S)-1-(3-Chlorophenyl)-4-oxo-2,3,4,5-tetrahydro-1H-1,5-benzodiazepin-3-yl)-2,3-bis(3,3,3-trifluoropropyl)succinamide]	≥ 31
NC(=O)[C@@H](CCC(F)(F)F)[C@@H](CCC(F)(F)F)C(=O)N[C@H]1CN(c2cccc(C3CC3)c2)c2ccccc2NC1=O [Example 5, (2R,3S)—N-((3S)-1-(3-Cyclopropylphenyl)-4-oxo-2,3,4,5-tetrahydro-1H-1,5-benzodiazepin-3-yl)-2,3-bis(3,3,3-trifluoropropyl)succinamide]	≥ 31
NC(=O)[C@@H](CCC(F)(F)F)[C@@H](CCC(F)(F)F)C(=O)N[C@H]1CN(c2cccc(Cl)c2)c2cccc(C3CC3)c2NC1=O [Example 7, (2R,3S)—N-((3S)-1-(3-Chlorophenyl)-6-cyclopropyl-4-oxo-2,3,4,5-tetrahydro-1H-1,5-benzodiazepin-3-yl)-2,3-bis(3,3,3-trifluoropropyl)succinamide]	≥ 31
NC(=O)[C@@H](CC1CC1)[C@@H](CCC(F)(F)F)C(=O)N[C@H]1CN(c2cccc(C3CC3)c2)c2cccc(F)c2NC1=O [Example 15, (2R,3S)-3-(Cyclopropylmethyl)-N-((3S)-1-(3-cyclopropylphenyl)-6-fluoro-4-oxo-2,3,4,5-tetrahydro-1H-1,5-benzodiazepin-3-yl)-2-(3,3,3-trifluoropropyl)succinamide]	≥ 31
N#Cc1cccc(N2C[C@H](NC(=O)[C@H](CCC(F)(F)F)[C@H](CC3CC3)C(N)=O)C(=O)Nc3c(Cl)cccc32)c1 [Example 25, (2R,3S)—N-((3S)-6-Chloro-1-(3-cyanophenyl)-4-oxo-2,3,4,5-tetrahydro-1H-1,5-benzodiazepin-3-yl)-3-(cyclopropylmethyl)-2-(3,3,3-trifluoropropyl)succinamide]	≥ 31
N#Cc1ccccc1N1C[C@H](NC(=O)[C@H](CCC(F)(F)F)[C@H](CC2CC2)C(N)=O)C(=O)Nc2c(Cl)cccc21 [Example 26, (2R,3S)—N-((3S)-6-Chloro-1-(2-cyanophenyl)-4-oxo-2,3,4,5-tetrahydro-1H-1,5-benzodiazepin-3-yl)-3-(cyclopropylmethyl)-2-(3,3,3-trifluoropropyl)succinamide]	≥ 31

Further lines, results first:

half-life at 0.5 μM [min]	SMILES
≥ 31	N#Cc1cc(F)cc(N2C[C@H](NC(=O)[C@H](CCC(F)(F)F)[C@H](CC3CC3)C(N)=O)C(=O)Nc3c(Cl)cccc32)c1 [Example 28, (2R,3S)—N-((3S)-6-Chloro-1-(3-cyano-5-fluorophenyl)-4-oxo-2,3,4,5-tetrahydro-1H-1,5-benzodiazepin-3-yl)-3-(cyclopropylmethyl)-2-(3,3,3-trifluoropropyl)succinamide]
≥ 31	NC(=O)[C@@H](CC1CC1)[C@@H](CCC(F)(F)F)C(=O)N[C@H]1CN(c2cccc(C3CC3)c2)c2cccc(Cl)c2NC1=O [Example 29, (2R,3S)—N-((3S)-6-Chloro-1-(3-cyclopropylphenyl)-4-oxo-2,3,4,5-tetrahydro-1H-1,5-benzodiazepin-3-yl)-3-(cyclopropylmethyl)-2-(3,3,3-trifluoropropyl)succinamide]
≥ 31	NC(=O)[C@@H](CCC(F)(F)F)[C@@H](CCC(F)(F)F)C(=O)N[C@H]1CN(c2cccc(Cl)c2)c2cccc(Cl)c2NC1=O [Example 31, (2R,3S)—N-((3S)-6-Chloro-1-(3-chlorophenyl)-4-oxo-2,3,4,5-tetrahydro-1H-1,5-benzodiazepin-3-yl)-2,3-bis(3,3,3-trifluoropropyl)succinamide]
≥ 31	NC(=O)[C@@H](CCC(F)(F)F)[C@@H](CCC(F)(F)F)C(=O)N[C@H]1CN(c2ccccn2)c2cccc(Cl)c2NC1=O [Example 33, (2R,3S)—N-((3S)-6-Chloro-4-oxo-1-(2-pyridinyl)-2,3,4,5-tetrahydro-1H-1,5-benzodiazepin-3-yl)-2,3-bis(3,3,3-trifluoropropyl)succinamide]
≥ 31	NC(=O)[C@@H](c1ccccc1)[C@@H](CCC(F)(F)F)C(=O)N[C@H]1CN(c2cccc(C(F)(F)F)n2)c2cccc(Cl)c2NC1=O [Example 34, (2R,3R)—N-((3S)-6-Chloro-4-oxo-1-(6-(trifluoromethyl)-2-pyridinyl)-2,3,4,5-tetrahydro-1H-1,5-benzodiazepin-3-yl)-3-phenyl-2-(3,3,3-trifluoropropyl)succinamide]
≥ 31	NC(=O)[C@@H](CCC(F)(F)F)[C@@H](CCC(F)(F)F)C(=O)N[C@H]1CN(c2ccccc2)c2ccc(F)cc2NC1=O [Example 37, (2R,3S)—N-((3S)-7-Fluoro-4-oxo-1-phenyl-2,3,4,5-tetrahydro-1H-1,5-benzodiazepin-3-yl)-2,3-bis(3,3,3-trifluoropropyl)succinamide]
